Assays:
[1] = tested on: H358 cells; test: Inhibition of KRas-mediated phosphorylation of ERK (Cisbio HTRF pERK), H358 cells; assay type: cell-based; settings: Homo sapiens, NCI-H358, 3 h, 3 hr compound incubation
[2] = target: KRas WT (Homo sapiens, UniProt P01116); test: KRas binding assay (TR-FRET displacement), KRas WT; settings: TR-FRET displacement
[3] = tested on: H460 cells; test: Inhibition of KRas-mediated phosphorylation of ERK (Cisbio HTRF pERK), H460 cells; assay type: cell-based; settings: Homo sapiens, NCI-H460, 3 h, 3 hr compound incubation
[4] = target: KRas G12V (Homo sapiens, UniProt P01116, G12V); test: biochemical; settings: Binding to KRas (IC50 nM) G12V, TR-FRET displacement, KRas G12V
[5] = target: KRas G12D (Homo sapiens, UniProt P01116, G12D); test: biochemical; settings: Binding to KRas (IC50 nM) G12D, TR-FRET displacement, KRas G12D
[6] = tested on: ASPC1 cells; test: Inhibition of KRas-mediated phosphorylation of ERK (Cisbio HTRF pERK), ASPC1 cells; assay type: cell-based; settings: Homo sapiens, ASPC1, 3 h, AsPC-1 cells; 3 hr compound incubation
[7] = target: KRas G12C (Homo sapiens, UniProt P01116, G12C); assay type: binding; settings: TR-FRET displacement, read-out: Binding to KRas (IC50 nM) G12C
[8] = target: KRas G12S (Homo sapiens, UniProt P01116, G12S); assay type: binding; settings: TR-FRET displacement, read-out: Binding to KRas (IC50 nM) G12S
[9] = tested on: A549 cells; test: Inhibition of KRas-mediated phosphorylation of ERK (Cisbio HTRF pERK), A549 cells; assay type: cell-based; settings: Homo sapiens, A549, 3 h, 3 hr compound incubation
[10] = tested on: H727 cells; test: Inhibition of KRas-mediated phosphorylation of ERK (Cisbio HTRF pERK), H727 cells; assay type: cell-based; settings: Homo sapiens, NCI-H727, 3 h, 3 hr compound incubation
[11] = tested on: HCT116 cells; test: Inhibition of KRas-mediated phosphorylation of ERK (Cisbio HTRF pERK), HCT116 cells; assay type: cell-based; settings: Homo sapiens, HCT-116, 3 h, 3 hr compound incubation
[12] = target: KRas Q61H (Homo sapiens, UniProt P01116, Q61H); test: KRas binding assay (TR-FRET displacement), KRas Q61H; settings: TR-FRET displacement
[13] = target: KRas G12A (Homo sapiens, UniProt P01116, G12A); assay type: binding; settings: TR-FRET displacement, read-out: Binding to KRas (IC50 nM) G12A
[14] = target: KRas G13D (Homo sapiens, UniProt P01116, G13D); assay type: binding; settings: TR-FRET displacement, read-out: Binding to KRas (IC50 nM) G13D
Sequence of KRas G13D (P01116 1-169 isoform P01116-2 G13D): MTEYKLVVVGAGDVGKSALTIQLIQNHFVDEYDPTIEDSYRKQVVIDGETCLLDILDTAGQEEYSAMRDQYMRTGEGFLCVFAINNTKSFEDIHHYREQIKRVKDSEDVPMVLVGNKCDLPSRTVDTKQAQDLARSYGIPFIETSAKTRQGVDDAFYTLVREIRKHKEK

Sequence of KRas G12D (P01116 1-169 isoform P01116-2 G12D): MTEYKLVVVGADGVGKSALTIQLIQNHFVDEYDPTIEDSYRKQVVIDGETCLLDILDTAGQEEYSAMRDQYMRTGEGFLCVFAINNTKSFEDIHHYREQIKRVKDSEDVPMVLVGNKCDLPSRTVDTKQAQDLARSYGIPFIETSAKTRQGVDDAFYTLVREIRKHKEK
Sequence of KRas G12S (P01116 1-169 isoform P01116-2 G12S): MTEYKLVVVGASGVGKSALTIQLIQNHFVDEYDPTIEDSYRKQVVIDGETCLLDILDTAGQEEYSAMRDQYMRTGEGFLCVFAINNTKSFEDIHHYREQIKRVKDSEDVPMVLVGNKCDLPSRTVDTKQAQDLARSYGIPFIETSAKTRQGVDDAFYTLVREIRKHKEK
Sequence of KRas G12V (P01116 1-169 isoform P01116-2 G12V): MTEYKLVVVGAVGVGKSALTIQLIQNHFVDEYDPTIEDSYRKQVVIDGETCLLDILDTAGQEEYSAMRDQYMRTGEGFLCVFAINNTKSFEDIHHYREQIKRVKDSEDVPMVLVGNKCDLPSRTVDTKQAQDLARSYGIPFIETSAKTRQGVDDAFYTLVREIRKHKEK
Sequence of KRas WT (P01116 1-169 isoform P01116-2): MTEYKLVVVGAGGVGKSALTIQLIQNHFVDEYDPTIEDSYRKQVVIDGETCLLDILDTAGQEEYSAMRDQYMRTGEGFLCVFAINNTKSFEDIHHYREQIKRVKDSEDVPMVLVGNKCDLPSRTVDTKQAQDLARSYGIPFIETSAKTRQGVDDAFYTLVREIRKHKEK
Sequence of KRas G12A (P01116 1-169 isoform P01116-2 G12A): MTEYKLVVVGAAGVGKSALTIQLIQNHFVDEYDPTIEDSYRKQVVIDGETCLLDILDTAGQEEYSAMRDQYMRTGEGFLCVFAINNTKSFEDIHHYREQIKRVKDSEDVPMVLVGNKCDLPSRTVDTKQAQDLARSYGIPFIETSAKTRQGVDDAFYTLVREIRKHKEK
Sequence of KRas G12C (P01116 1-169 isoform P01116-2 G12C): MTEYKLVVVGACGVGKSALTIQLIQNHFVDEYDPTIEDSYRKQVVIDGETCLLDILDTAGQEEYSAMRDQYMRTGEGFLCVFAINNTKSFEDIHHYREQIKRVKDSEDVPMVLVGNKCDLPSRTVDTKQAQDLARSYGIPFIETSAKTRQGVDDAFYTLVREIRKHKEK
Sequence of KRas Q61H (P01116 1-169 isoform P01116-2 Q61H): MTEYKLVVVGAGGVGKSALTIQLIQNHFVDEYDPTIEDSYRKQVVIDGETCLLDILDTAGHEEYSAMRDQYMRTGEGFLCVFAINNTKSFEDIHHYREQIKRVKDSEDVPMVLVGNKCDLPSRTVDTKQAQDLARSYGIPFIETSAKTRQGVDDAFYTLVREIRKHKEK

## C[C@@H]1C[C@@H]1c1c(Cl)cc(O)cc1N1CCc2c(nc(OC[C@@]34CCCN3C[C@H](F)C4)nc2N2CCC[C@@](C)(O)C2)C1 (stereo in doubt) [Example 655, (R)-1-(7-(3-chloro-5-hydroxy-2-(cis-2-methylcyclopropyl)phenyl)-2-(((2R,7aS)-2-fluorotetrahydro-1H-pyrrolizin-7a(5H)-yl)methoxy)-5,6,7,8-tetrahydropyrido[3,4-d]pyrimidin-4-yl)-3-methylpiperidin-3-ol]
[1]
  IC50: 189 nM
[2]
  IC50: 5 nM
[3]
  IC50: 237 nM
[4]
  IC50: 4 nM
[5]
  IC50: 5 nM
[6]
  IC50: 247 nM
[7]
  IC50: 4 nM
[8]
  IC50: 5 nM
[9]
  IC50: 359 nM
[10]
  IC50: 525 nM
[11]
  IC50: 926 nM

## CCc1cccc2cccc(N3CCc4c(nc(OCC5(CN(C)C)CC5)nc4N4CCCC(c5nnc[nH]5)C4)C3)c12 (centres unmarked) [Example 514, 1-(1-(((4-(3-(4H-1,2,4-triazol-3-yl)piperidin-1-yl)-7-(8-ethylnaphthalen-1-yl)-5,6,7,8-tetrahydropyrido[3,4-d]pyrimidin-2-yl)oxy)methyl)cyclopropyl)-N,N-dimethylmethanamine]
[2]
  IC50: 252 nM
[4]
  IC50: 1570 nM
[5]
  IC50: 3220 nM
[12]
  IC50: 389 nM
[7]
  IC50: 286 nM
[8]
  IC50: 318 nM
[13]
  IC50: 296 nM
[14]
  IC50: 372 nM

## CCc1cccc2cccc(N3CCc4c(nc(OCC5(CN(C)C)CC5)nc4N4CCCOC(CCO)C4)C3)c12 (centres unmarked) [Example 515, 2-(4-(2-((1-((dimethylamino)methyl)cyclopropyl)methoxy)-7-(8-ethylnaphthalen-1-yl)-5,6,7,8-tetrahydropyrido[3,4-d]pyrimidin-4-yl)-1,4-oxazepan-2-yl)ethan-1-ol]
[2]
  IC50: 622 nM
[4]
  IC50: 346 nM
[5]
  IC50: 298 nM
[12]
  IC50: 877 nM
[7]
  IC50: 373 nM
[8]
  IC50: 725 nM
[13]
  IC50: 656 nM
[14]
  IC50: 988 nM

## CCc1cccc2cccc(N3CCc4c(nc(OCC5(CN(C)C)CC5)nc4N4CC(C)CC(CO)C4)C3)c12 (centres unmarked) [Example 516, (1-(2-((1-((dimethylamino)methyl)cyclopropyl)methoxy)-7-(8-ethylnaphthalen-1-yl)-5,6,7,8-tetrahydropyrido[3,4-d]pyrimidin-4-yl)-5-methylpiperidin-3-yl)methanol]
[2]
  IC50: 2650 nM
[4]
  IC50: 1150 nM
[5]
  IC50: 1230 nM
[12]
  IC50: 2530 nM
[7]
  IC50: 1030 nM
[8]
  IC50: 1560 nM
[13]
  IC50: 1490 nM
[14]
  IC50: 3180 nM

## CCc1cccc2cccc(N3CCc4c(nc(OCC5(CN(C)C)CC5)nc4N4CCn5nnc(CO)c5C4)C3)c12 [Example 517, (5-(2-((1-((dimethylamino)methyl)cyclopropyl)methoxy)-7-(8-ethylnaphthalen-1-yl)-5,6,7,8-tetrahydropyrido[3,4-d]pyrimidin-4-yl)-4,5,6,7-tetrahydro-[1,2,3]triazolo[1,5-a]pyrazin-3-yl)methanol]
[2]
  IC50: 9330 nM
[4]
  IC50: 3100 nM
[5]
  IC50: 1260 nM
[12]
  IC50: 11500 nM
[7]
  IC50: 4470 nM
[8]
  IC50: 6620 nM
[13]
  IC50: 7190 nM
[14]
  IC50: 15300 nM

## CCc1cccc2cccc(N3CCc4c(nc(OCC5(CN(C)C)CC5)nc4NCc4c(C)nnn4CC)C3)c12 [Example 518, 2-((1-((dimethylamino)methyl)cyclopropyl)methoxy)-N-((1-ethyl-4-methyl-1H-1,2,3-triazol-5-yl)methyl)-7-(8-ethylnaphthalen-1-yl)-5,6,7,8-tetrahydropyrido[3,4-d]pyrimidin-4-amine]
[2]
  IC50: 221 nM
[4]
  IC50: 1790 nM
[5]
  IC50: 1930 nM
[12]
  IC50: 190 nM
[7]
  IC50: 139 nM
[8]
  IC50: 161 nM
[13]
  IC50: 175 nM
[14]
  IC50: 249 nM

## CCc1cccc2cccc(N3CCc4c(nc(OCC5(CN(C)C)CC5)nc4N4Cc5nncn5C(C)C4)C3)c12 (centres unmarked) [Example 519, 1-(1-(((7-(8-ethylnaphthalen-1-yl)-4-(5-methyl-5,6-dihydro-[1,2,4]triazolo[4,3-a]pyrazin-7(8H)-yl)-5,6,7,8-tetrahydropyrido[3,4-d]pyrimidin-2-yl)oxy)methyl)cyclopropyl)-N,N-dimethylmethanamine]
[2]
  IC50: 5230 nM
[4]
  IC50: 1560 nM
[5]
  IC50: 2000 nM
[12]
  IC50: 5920 nM
[7]
  IC50: 2850 nM
[8]
  IC50: 5480 nM
[13]
  IC50: 5580 nM
[14]
  IC50: 8140 nM

## CCc1cccc2cccc(N3CCc4c(nc(OCC5(CN(C)C)CC5)nc4NCc4nc(C(O)C5CC5)n[nH]4)C3)c12 (centres unmarked) [Example 520, cyclopropyl(5-(((2-((1-((dimethylamino)methyl)cyclopropyl)methoxy)-7-(8-ethylnaphthalen-1-yl)-5,6,7,8-tetrahydropyrido[3,4-d]pyrimidin-4-yl)amino)methyl)-1H-1,2,4-triazol-3-yl)methanol]
[2]
  IC50: 4610 nM
[4]
  IC50: 3990 nM
[5]
  IC50: 2460 nM
[12]
  IC50: 5940 nM
[7]
  IC50: 2290 nM
[8]
  IC50: 2900 nM
[13]
  IC50: 4150 nM
[14]
  IC50: 5070 nM

## CCc1cccc2cccc(N3CCc4c(nc(OCC5(CN(C)C)CC5)nc4N4CCCC(Cn5cc(C(=O)NC)nn5)C4)C3)c12 (centres unmarked) [Example 528, 1-((1-(2-((1-((dimethylamino)methyl)cyclopropyl)methoxy)-7-(8-ethylnaphthalen-1-yl)-5,6,7,8-tetrahydropyrido[3,4-d]pyrimidin-4-yl)piperidin-3-yl)methyl)-N-methyl-1H-1,2,3-triazole-4-carboxamide]
[2]
  IC50: 8290 nM
[4]
  IC50: 13600 nM
[5]
  IC50: 6290 nM
[12]
  IC50: 7520 nM
[7]
  IC50: 13500 nM
[8]
  IC50: 11700 nM
[13]
  IC50: 10500 nM
[14]
  IC50: 7930 nM

## CCc1cccc2cccc(N3CCc4c(nc(OCC5(CN(C)C)CC5)nc4N(C)Cc4nnc5n4CCNC5=O)C3)c12 [Example 529, 3-(((2-((1-((dimethylamino)methyl)cyclopropyl)methoxy)-7-(8-ethylnaphthalen-1-yl)-5,6,7,8-tetrahydropyrido[3,4-d]pyrimidin-4-yl)(methyl)amino)methyl)-6,7-dihydro-[1,2,4]triazolo[4,3-a]pyrazin-8(5H)-one]
[2]
  IC50: 2000 nM
[4]
  IC50: 3000 nM
[5]
  IC50: 6570 nM
[12]
  IC50: 1410 nM
[7]
  IC50: 1200 nM
[8]
  IC50: 1060 nM
[13]
  IC50: 1380 nM
[14]
  IC50: 2110 nM

## CCc1cccc2cccc(N3CCc4c(nc(OCC5(CN(C)C)CC5)nc4NCc4nc(-c5ccncc5)no4)C3)c12 [Example 530, 2-((1-((dimethylamino)methyl)cyclopropyl)methoxy)-7-(8-ethylnaphthalen-1-yl)-N-((3-(pyridin-4-yl)-1,2,4-oxadiazol-5-yl)methyl)-5,6,7,8-tetrahydropyrido[3,4-d]pyrimidin-4-amine]
[2]
  IC50: 2660 nM
[4]
  IC50: 7530 nM
[5]
  IC50: 6680 nM
[12]
  IC50: 3080 nM
[7]
  IC50: 1030 nM
[8]
  IC50: 1070 nM
[13]
  IC50: 1920 nM
[14]
  IC50: 3470 nM

## CCc1cccc2cccc(N3CCc4c(nc(OCC5(CN(C)C)CC5)nc4NCc4nnc(C5CCCO5)[nH]4)C3)c12 (centres unmarked) [Example 531, 2-((1-((dimethylamino)methyl)cyclopropyl)methoxy)-7-(8-ethylnaphthalen-1-yl)-N-((5-(tetrahydrofuran-2-yl)-4H-1,2,4-triazol-3-yl)methyl)-5,6,7,8-tetrahydropyrido[3,4-d]pyrimidin-4-amine]
[2]
  IC50: 17000 nM
[4]
  IC50: 5700 nM
[5]
  IC50: 6830 nM
[12]
  IC50: 22400 nM
[7]
  IC50: 9540 nM
[8]
  IC50: 19900 nM
[13]
  IC50: 17200 nM
[14]
  IC50: 24900 nM

## CCc1cccc2cccc(N3CCc4c(nc(OCC5(CN(C)C)CC5)nc4N4CCOC(c5n[nH]c(CO)n5)C4)C3)c12 (centres unmarked) [Example 532, (3-(4-(2-((1-((dimethylamino)methyl)cyclopropyl)methoxy)-7-(8-ethylnaphthalen-1-yl)-5,6,7,8-tetrahydropyrido[3,4-d]pyrimidin-4-yl)morpholin-2-yl)-1H-1,2,4-triazol-5-yl)methanol]
[2]
  IC50: 910 nM
[4]
  IC50: 756 nM
[5]
  IC50: 7260 nM
[12]
  IC50: 901 nM
[7]
  IC50: 370 nM
[8]
  IC50: 700 nM
[13]
  IC50: 649 nM
[14]
  IC50: 1150 nM

— patent publication US20250368649A1, “TETRAHYDROPYRIDOPYRIMIDINE PAN-KRAS INHIBITORS” (Mirati Therapeutics, Inc., priority 2022, published 2025)
